According to PubChem BioAssay (NCI):
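Five concentrations, 48 hours, 96-well plates. TGI: concentration producing complete growth inhibition.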

Columns and labels:
Assay in all cases: NCI-60 cell line screen, 48 h
NCI-H522 lung = tested on: NCI-H522 lung
SF-268 CNS = tested on: SF-268 CNS
EKVX NSCLC = tested on: EKVX NSCLC
SK-MEL-2 melanoma = tested on: SK-MEL-2 melanoma
NCI-H23 lung = tested on: NCI-H23 lung
HS 578T breast = tested on: HS 578T breast
SNB-75 CNS = tested on: SNB-75 CNS
SF-539 CNS = tested on: SF-539 CNS
DU-145 prostate = tested on: DU-145 prostate
UACC-257 melanoma = tested on: UACC-257 melanoma
RXF 393 renal = tested on: RXF 393 renal
COLO 205 colon = tested on: COLO 205 colon

Compound	TGI (NCI-H522 lung) [µM]	TGI (SF-268 CNS) [µM]	TGI (EKVX NSCLC) [µM]	TGI (SK-MEL-2 melanoma) [µM]	TGI (NCI-H23 lung) [µM]	TGI (HS 578T breast) [µM]	TGI (SNB-75 CNS) [µM]	TGI (SF-539 CNS) [µM]	TGI (DU-145 prostate) [µM]	TGI (UACC-257 melanoma) [µM]	TGI (RXF 393 renal) [µM]	TGI (COLO 205 colon) [µM]
O=c1cc(-c2cccc(OC(F)(F)F)c2)[nH]c2cc3c(cc12)OCO3	> 100	> 100	> 100	0.628	> 100	4.9	17.3	0.204	> 100	> 100	> 89.4	> 32.2
O=[N+]([O-])C(=C(N1CCOCC1)N1CCOCC1)/C(Cl)=C(\Cl)[N+](=O)[O-]	2.89	22.9	23.2	32.2	9.29	16.6	34.5	23.8	18	10.5	3.89	7.62
Cc1cc2c(s1)C(=O)c1sccc1C2=O	1.38	2.09	3.32	1.33	0.36	2.52	1.18	0.622	3.23	0.385	2.46	3.36
CC(=O)Nc1ccc2c(C)c3c4ccccc4n(C)c3nc2n1	65.6	64.4	> 100	47.6	53.4	50.2	> 100	77.6	90.4	57.5	34.6	30.9
CCCCc1c2c(nc3c1CCC/C3=C\c1ccccc1)C(=O)C(CN(C)C)CC2 (stereo not given)	30.1	35.6	36.1	39.4	31.8	70.8	27	36.5	29.1	33.7	30.9	36.6
CN(C)CCNc1ccc2c(=O)n(CCN(C)C)c(=O)n3c4ccc(N)cc4c(=O)c1c23	0.0832	1.25	0.593	0.496	0.215	1.3	0.442	0.482	2.08	2.51	0.263	1.26
O=C1CC2(CCC(O)(c3ccc(Cl)cc3)C(C(=O)c3ccc(Cl)cc3)C2)C(=O)c2ccccc2N1 (stereo not given)	> 100	17	> 48.6	> 100	53.8	7.44	3.82	11.2	> 36.8	62.6	22.3	> 56.5
CCCNC(=S)/N=C\c1c(O)c2ccccc2oc1=O	> 100	> 100	> 100	> 100	> 100	> 100	> 100	> 100	> 100	> 100	> 100	> 100
CC(C)/C=N\n1c(N)c(C#N)c(C#N)c1C(C)C	> 100	> 100	72.8	58	75.4	95.3	40.4	52.5	> 100	50.3	> 100	45.7
O=C1/C(=C\c2cccc(Oc3ccccc3)c2)SC(c2ccccc2)N1c1ccc(Cl)cc1 (stereo not given)	96.9	> 100	> 100	> 100	98.7	> 100	> 100	52.6	> 100	> 100	> 100	> 80.9
CCC(=O)COc1ccc(NC(NC(=O)C(C(F)(F)F)C(F)(F)F)(C(F)(F)F)C(F)(F)F)cc1	35.5	78.1	> 100	95.5	> 100	> 100	75.3	55.2	> 100	> 100	48.7	43.7
O=S1(=O)CCN(Cc2ccccc2)/C1=N\S(=O)(=O)c1ccc(Cl)cc1	29.9	31.4	28.5	53.3	35.3	73.8	50.9	36.1	35.3	35.7	34.6	34.3
CC1(C)OCC(C2OC(N3O[C@H](CI)C[C@@H]3c3ccccc3)C3OC(C)(C)OC23)O1 (stereo not given in full)	> 100	> 100	> 100	> 100	> 100	> 100	> 100	> 100	> 100	> 100	> 100	> 100
COc1ccc(OC)c2nc3c(C(=O)NCCN(C)C)cccc3nc12	13.4	27.6	22.9	25.9	25.5	29.6	32.4	20	> 100	15.3	23.2	11.9
Cc1ccccc1N(C)S(=O)(=O)c1ccccc1[N+](=O)[O-]	> 100	> 100	> 100	> 100	> 100	> 100	> 100	> 100	> 100	> 100	83	> 100
